The values that follow come from ChEMBL document CHEMBL1134007, “Synthesis and structure-activity relationships of 1-phenylpyrazoles as xanthine oxidase inhibitors” (Bioorg Med Chem Lett, 2001).

The term IC50 denotes the point on the concentration scale where inhibition reaches its midpoint. High values mean weaker potency in that assay, low ones greater potency in that assay. One may read the inhibition as the share of the control response that was lost under treatment. A low value points to little suppression. A word on the CL/F: it is the apparent clearance, not corrected for the fraction that reaches the circulation. Usually Tmax stands for the time from dosing to the highest level.

Some results are limits rather than exact numbers.

Data set [1] has as its target T1, Xanthine dehydrogenase/oxidase (Bos taurus, UniProt P80457). Kind of data set: In vitro inhibitory concentration against Xanthine oxidase.
For data set [2], the target named is T1, Xanthine dehydrogenase/oxidase. The data set can be described thus: In vitro percent inhibition against Xanthine oxidase at concentration of 10000 nmol/L.
Data set [3] has as its system Rattus norvegicus. Kind of data set: Tested for hypouricemic effect in potassium oxonate (uricase inhibitor) treated (po)rats for 0-6 hr expressed as ED20. In kind it is functional.
Data set [4] deals with Rattus norvegicus. Kind of data set: Tested for hypouricemic effect in potassium oxonate (uricase inhibitor) treated (po) rats for 0-24 hr expressed as ED20. It counts as functional.
The nature of data set [5]: In vivo CL/F determined. In kind it is ADME, organism-based. As to conditions: rat.
Data set [6] can be described thus: Tmax determined after 3 mg/kg oral administration in potassium oxonate treated rats. As to conditions: rat, in vivo. It counts as ADME, organism-based. Also on record: dose 3 mg/kg, route oral.
The subject of data set [7] is Rattus norvegicus. The data set can be described thus: Tested for hypouricemic effect in potassium oxonate (uricase inhibitor) treated (po) rats for 0-6 hr expressed as ED20. In kind it is functional.
A short description of data set [8]: Tmax determined after 0.3 mg/kg oral administration in potassium oxonate treated rats. It counts as ADME, organism-based. Further details: dose 0.3 mg/kg, route oral. To be noted: rat, in vivo.

T1 sequence (P80457 whole entry): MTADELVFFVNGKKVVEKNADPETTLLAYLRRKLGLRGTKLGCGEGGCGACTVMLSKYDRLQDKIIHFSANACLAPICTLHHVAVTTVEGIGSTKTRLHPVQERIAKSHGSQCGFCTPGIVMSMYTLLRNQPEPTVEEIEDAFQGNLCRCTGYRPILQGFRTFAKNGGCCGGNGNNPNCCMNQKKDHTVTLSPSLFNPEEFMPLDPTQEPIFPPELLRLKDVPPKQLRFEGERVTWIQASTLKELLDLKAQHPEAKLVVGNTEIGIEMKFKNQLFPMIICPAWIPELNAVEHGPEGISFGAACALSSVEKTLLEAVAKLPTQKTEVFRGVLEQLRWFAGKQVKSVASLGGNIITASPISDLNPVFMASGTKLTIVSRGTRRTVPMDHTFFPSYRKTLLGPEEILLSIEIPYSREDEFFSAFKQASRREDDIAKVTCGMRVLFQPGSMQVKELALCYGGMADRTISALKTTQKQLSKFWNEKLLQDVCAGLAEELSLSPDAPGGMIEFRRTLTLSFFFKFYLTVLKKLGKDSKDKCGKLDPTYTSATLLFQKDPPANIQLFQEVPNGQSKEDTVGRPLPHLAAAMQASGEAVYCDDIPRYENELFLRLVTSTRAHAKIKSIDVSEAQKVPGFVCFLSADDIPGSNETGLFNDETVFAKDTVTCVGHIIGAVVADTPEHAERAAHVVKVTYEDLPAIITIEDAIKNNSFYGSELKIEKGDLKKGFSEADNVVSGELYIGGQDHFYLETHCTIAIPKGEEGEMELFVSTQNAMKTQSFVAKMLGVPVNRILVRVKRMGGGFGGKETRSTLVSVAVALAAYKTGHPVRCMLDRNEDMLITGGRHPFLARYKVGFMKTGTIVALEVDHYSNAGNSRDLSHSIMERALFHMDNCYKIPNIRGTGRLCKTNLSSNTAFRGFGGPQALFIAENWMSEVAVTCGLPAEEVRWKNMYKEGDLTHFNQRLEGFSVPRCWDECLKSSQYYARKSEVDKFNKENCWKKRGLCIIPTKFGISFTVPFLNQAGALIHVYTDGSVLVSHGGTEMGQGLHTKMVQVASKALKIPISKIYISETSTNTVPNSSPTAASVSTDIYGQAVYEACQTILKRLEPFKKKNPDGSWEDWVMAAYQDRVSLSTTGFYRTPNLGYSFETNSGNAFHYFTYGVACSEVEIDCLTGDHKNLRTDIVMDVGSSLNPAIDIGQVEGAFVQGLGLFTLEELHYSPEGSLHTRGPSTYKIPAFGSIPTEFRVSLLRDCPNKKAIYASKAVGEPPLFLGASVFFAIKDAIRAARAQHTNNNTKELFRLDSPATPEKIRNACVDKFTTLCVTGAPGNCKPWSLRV

With `CN(C)CCOc1ccc(-n2cc(C(=O)O)cn2)cc1C#N`, half-maximal inhibition in data set [1] (IC50) was put at 0.7 µM.

Turning to `O=C(O)c1cnn(-c2ccc(Cl)cc2)c1`, in data set [2], the inhibition at 10 µM was under 50%.

In data set [2], `COc1ccc(-n2cc(C(=O)O)cn2)cc1` showed an inhibition at 10 µM of under 50%.

Consider `Oc1ncnc2[nH]ncc12` [ALLOPURINOL], for which the ED20 is 3.5 mg/kg with Rattus norvegicus [3] and over 10 mg/kg in the data set on Rattus norvegicus [4].

For the molecule `COc1ccc(-n2cc(C(=O)O)cn2)cc1C#N`, the IC50 in data set [1] came to 0.46 µM.

`CCOC(=O)c1cnn(-c2ccc(OCC(C)C)c(C#N)c2)c1` gave an inhibition at 10 µM in data set [2] of under 50%.

As for `CC(C)COc1ccc(-n2cc(C(=O)O)cn2)cc1[N+](=O)[O-]`, the midpoint of inhibition in data set [1], the IC50, lay at 0.033 µM.

In data set [1], `N#Cc1cc(-n2cc(C(=O)O)cn2)ccc1OCC(=O)O` had an IC50 of 1.5 µM.

With `CC(C)COc1ccc(-n2cc(C(=O)O)cn2)cc1C#N`, the CL/F in data set [5] is 9.83 mL/min/kg. The values for the Tmax in data set [6] and in data set [8] were 1.3 h and 1.1 h, respectively. The ED20 is 2.5 mg/kg in the data set on Rattus norvegicus [7] and over 10 mg/kg in the data set on Rattus norvegicus [4].

On to `CC(C)(C)COc1ccc(-n2cc(C(=O)O)cn2)cc1C#N`, for which the CL/F in data set [5] was 2 mL/min/kg. In addition, the time of peak concentration (Tmax) in data set [6] and in data set [8] was 3.5 h each time. In addition, the ED20 in the data set with Rattus norvegicus [7] amounted to 0.55 mg/kg; in the data set on Rattus norvegicus [4] it was 1.4 mg/kg.
